Reference: patent US12247972B2 (priority 2018, dated 2025)

Key:
NG108-15 cells = experiment: Intracellular potential recording in differentiated cultured nerve cells with MagEle not isolated from external fluid; assay type: cell-based; details: 3 mM; after 20 μM Veratridine
Method: In this experiment, the cultured nerve cells (NG108-15 cells) used in Example 3 were induced and differentiated into nerves under the same differentiation conditions as in the experiment example 3. In the same manner as in Example 3, the MagEle (magnet electrode) is moved from above the target cell toward the cell, and the conductive gold-coated magnetic nanoparticles adsorbed on the MagEle are adhered to the cell membrane to penetrate it. Then, the intracellular potential was measured by connecting the MagEle to the (+) pole and a conductor provided on an insulator (parafilm film) that completely covers the upper surface of the MagEle to the ground. At that time, although the insulator completely covered the top and sides of the (+) pole MagEle, the surface facing the cover glass, to which the cells adhere was not covered, and the cells were not isolated from the external fluid (FIG. 19).
The NG108-15 cells were differentiated by culturing for 3 weeks in DMEM/HAT medium containing 2% FBS supplemented with Forskolin (10 μM).

[1] = tested on: NG108-15 cells (endogenous glutamate receptor); experiment: Intracellular potential recording of cultured nerve cells with C-M magnet electrode (glutamate response); assay type: cell-based; details: final external fluid concentration 800 μM
Method: NG108-15 cells were used for the purpose of showing that recording is possible from cultured nerve cells. NG108-15 cells (neuroblastoma-glioma hybrid cells) were cultured in a culture medium containing DMEM (Sigma-Aldrich), HAT supplement (Thermofisher) and 10% FBS (Biowest). NG108-15 was seeded on a cover glass that was coated with 0.1% Polyethyleneimine (pH8.4, 150 mM Sodium Tetra-Borate (Wako)), and cultured in the culture medium, in which FBS concentration was reduced to 5% from the above culture medium, and the nerve differentiation was induced by adding 500 μM Ibuprofen (Wako). […]
PEI and PEG-gold coated magnetic nanoparticles were mixed and left at room temperature for 3 hours. This mixed solution is moved to the cell-adhesive surface of the neodymium magnet and left for additional 15 minutes to magnetically bond the gold nanoparticles to the neodymium magnet electrode.
The above nanoparticle-bonding magnet electrode was placed on the cultured cells placed on an iron plate. […]
In addition to the spontaneous action potential, the following experiment was conducted to confirm whether the neuronal activity by the neurotransmitter glutamate can be recorded. […] Glutamic acid was administered to the extracellular fluid (final external fluid concentration 800 μM), and the response mediated by glutamate receptors was recorded. […]

SMILES | spontaneous action potential induced by Veratridine (NG108-15 cells) | time for glutamate-induced membrane potential change to return to baseline ([1]; decay due to desensitization) | membrane potential response mediated by glutamate receptors ([1]; neural differentiation induction for 2 days)
CCN(CC)CC(=O)Nc1c(C)cccc1C [Lidocaine] | suppressed |  | 
N[C@@H](CCC(=O)O)C(=O)O [Glutamate, Glutamic acid] |  | about 90 seconds | depolarization (upward change) response of the membrane potential
